Non-standard residues stand in square brackets, D forms with d. Residues, ends and D or L forms follow the SMILES beside them. *: point of attachment. pY = N[C@@H](Cc1ccc(OP(=O)(O)O)cc1)C(=O)O; Cbz = O=C(OCc1ccccc1)*; Bn = c1ccc(C*)cc1; NHNH2 = NN*
target: T1, rat brain farnesyl protein transferase (Rattus norvegicus, UniProt Q02293+Q04631); test: PFT inhibitory activity assay (radiolabeled farnesyl pyrophosphate, biotinylated peptide substrate, streptavidin beads); type: biochemical; conditions: 40-fold purified enzyme; 30 mM potassium phosphate buffer, pH 7.4; 37°C for 30 minutes; farnesyl pyrophosphate 0.12 µM, (biotinyl)-Ahe-Tyr-Lys-Cys-Val-Ile-Met 0.1 µM
T1 construct: 40-fold purified rat brain farnesyl protein transferase; from tissue; host or cells: rat brain
Experimental: The PFT inhibitory activity of compounds of Formula I was assayed in 30 mM potassium phosphate buffer, pH 7.4, containing 7 mM DTT, 1.2 mM MgCl2, 0.1 mM leupeptin, 0.1 mM pepstatin, and 0.2 mM phenylmethylsulfonyl fluoride. Assays were performed in 96 well plates (Wallec) and employed solutions composed of varying concentrations of a compound of Formula I in 100% DMSO. Upon addition of both substrates, radiolabeled farnesyl pyrophosphate ([1-^3H], specific activity 15-30 Ci/mmol, final concentration 0.12 µM) and (biotinyl)-Ahe-Tyr-Lys-Cys-Val-Ile-Met peptide (final concentration 0.1 µM), the enzyme reaction was started by addition of 40-fold purified rat brain farnesyl protein transferase. After incubation at 37°C for 30 minutes, the reaction was terminated by diluting the reaction 2.5-fold with a stop buffer containing 1.5 M magnesium acetate, 0.2 M H3PO4, 0.5% BSA, and strepavidin beads (Amersham) at a concentration of 1.3 mg/mL. After allowing the plate to settle for 30 minutes at room temperature, radioactivity was quantitated on a microBeta counter (model 1450, Wallec).

Q: How did the IC50 turn out when `CCNC(=O)[C@@H](C)NC(=O)[C@H](Cc1c[nH]c2ccccc12)NC(=O)[C@H](COCc1ccccc1)NC(=O)[C@H](Cc1ccc(OCc2ccccc2)cc1)NC(=O)[C@H](Cc1c[nH]cn1)NC(=O)OCc1ccccc1` [Cbz-His-Tyr(OBn)-Ser(OBn)-Trp-DAla- NHEt, Cbz-His-Tyr(OBn)-Ser(OBn)-Trp-D-Ala- NHEt] (Cbz-HY(Bn)S(Bn)W[dA]-NHEt) was run?
A: 230 nM

Q: With `COC(=O)[C@@H](C)NC(=O)[C@H](Cc1c[nH]c2ccccc12)NC(=O)[C@H](COCc1ccccc1)NC(=O)[C@H](Cc1ccc(OCc2ccccc2)cc1)NC(=O)[C@H](Cc1c[nH]cn1)NC(=O)OCc1ccccc1` [Cbz-His-Tyr(OBn)-Ser(OBn)-Trp-DAla-OMe, Cbz-His-Tyr(OBn)-Ser(OBn)-Trp-D-Ala-OMe] (Cbz-HY(Bn)S(Bn)W[dA]-OMe) as the molecule, how does the IC50 read?
A: 19 nM

Q: `C[C@H](NC(=O)[C@H](COCc1ccccc1)NC(=O)[C@H](Cc1ccc(OCc2ccccc2)cc1)NC(=O)[C@H](Cc1c[nH]cn1)NC(=O)OCc1ccccc1)C(=O)N[C@H](C)C(N)=O` [Cbz-His-Tyr (OBn)-Ser(OBn)-Ala-DAla-NH2, Cbz-His-Tyr(OBn)-Ser(OBn)-Ala-D-Ala- NH2] (Cbz-HY(Bn)S(Bn)A[dA]-NH2) was tested. Which IC50 did it give?
A: 330 nM

Q: Which IC50 does the source give for `C[C@@H](NC(=O)[C@H](Cc1c[nH]c2ccccc12)NC(=O)[C@H](COCc1ccccc1)NC(=O)[C@H](Cc1ccc(OCc2ccccc2)cc1)NC(=O)[C@@H](Cc1c[nH]cn1)NC(=O)OCc1ccccc1)C(N)=O` [Cbz-DHis-Tyr (OBn)-Ser(OBn)-Trp-DAla-NH2, Cbz-D-His-Tyr(OBn)-Ser(OBn)-Trp-D-Ala- NH2] (Cbz-[dH]Y(Bn)S(Bn)W[dA]-NH2) here?
A: 120 nM

Q: `NC(=O)[C@H](Cc1c[nH]c2ccccc12)NC(=O)[C@H](COCc1ccccc1)NC(=O)[C@H](Cc1ccc(OCc2ccccc2)cc1)NC(=O)[C@H](Cc1c[nH]cn1)NC(=O)OCc1ccccc1` [Cbz-His-Tyr(OBn)-Ser(OBn)-Trp-NH2, Cbz-His-Tyr(OBn)-Ser(OBn)-Trp- NH2] (Cbz-HY(Bn)S(Bn)W-NH2) was tested. Which IC50 did it give?
A: 83 nM

Q: `C[C@H](NC(=O)[C@H](Cc1c[nH]c2ccccc12)NC(=O)[C@H](COCc1ccccc1)NC(=O)[C@H](Cc1ccc(OCc2ccccc2)cc1)NC(=O)[C@H](Cc1c[nH]cn1)NC(=O)OCc1ccccc1)C(N)=O` [Cbz-His-Tyr(OBn)-Ser(OBn)-Trp-Ala-NH2, Cbz-His-Tyr(OBn)-Ser(OBn)-Trp-Ala- NH2] (Cbz-HY(Bn)S(Bn)WA-NH2) was tested. Which IC50 did it give?
A: 15 nM

Q: `C[C@@H](NC(=O)[C@H](Cc1c[nH]c2ccccc12)NC(=O)[C@H](COCc1ccccc1)NC(=O)[C@H](Cc1ccc(O)cc1)NC(=O)[C@H](Cc1c[nH]cn1)NC(=O)OCc1ccccc1)C(N)=O` [Cbz-His-Tyr-Ser(OBn)-Trp-DAla-NH2, Cbz-His-Tyr-Ser(OBn)-Trp-D-Ala- NH2] (Cbz-HYS(Bn)W[dA]-NH2) was tested. Which IC50 did it give?
A: 40 nM

Q: Which IC50 does the source give for `C[C@@H](NC(=O)[C@H](Cc1c[nH]c2ccccc12)NC(=O)[C@H](COCc1ccccc1)NC(=O)[C@H](Cc1ccc(OCc2ccccc2)cc1)NC(=O)[C@H](Cc1c[nH]cn1)NC(=O)OCc1ccccc1)C(=O)O` [Cbz-His-Tyr(OBn)-Ser(OBn)-Trp-DAla- OH, Cbz-His-Tyr(OBn)-Ser(OBn)-Trp-D-Ala] (Cbz-HY(Bn)S(Bn)W[dA]-OH) here?
A: 48 nM

Q: How did the IC50 turn out when `C[C@@H](NC(=O)[C@H](Cc1c[nH]c2ccccc12)NC(=O)[C@H](CS)NC(=O)[C@H](Cc1ccc(OCc2ccccc2)cc1)NC(=O)[C@H](Cc1c[nH]cn1)NC(=O)OCc1ccccc1)C(N)=O` [Cbz-His-Tyr (OBn)-Cys-Trp-DAla-NH2] (Cbz-HY(Bn)CW[dA]-NH2) was run?
A: 4 nM

Q: `C[C@@H](NC(=O)[C@H](Cc1c[nH]c2ccccc12)NC(=O)[C@H](COCc1ccccc1)NC(=O)[C@H](Cc1ccc(OCc2ccccc2)cc1)NC(=O)[C@H](Cc1c[nH]cn1)NC(=O)OCc1ccccc1)C(=O)NN` [Cbz-His-Tyr(OBn)-Ser(OBn)-Trp-D-Ala- NHNH2] (Cbz-HY(Bn)S(Bn)W[dA]-NHNH2) was tested. Which IC50 did it give?
A: 62 nM

Q: For `C[C@@H](NC(=O)[C@H](Cc1c[nH]c2ccccc12)NC(=O)[C@H](CO)NC(=O)[C@H](Cc1ccc(OCc2ccccc2)cc1)NC(=O)[C@H](Cc1c[nH]cn1)NC(=O)OCc1ccccc1)C(N)=O` [Cbz-His-Tyr(OBn)-Ser-Trp-DAla-NH2, Cbz-His-Tyr(OBn)-Ser-Trp-D-Ala- NH2] (Cbz-HY(Bn)SW[dA]-NH2), which IC50 is on record?
A: 1800 nM

Q: How did the IC50 turn out when `C[C@@H](NC(=O)[C@H](Cc1c[nH]c2ccccc12)NC(=O)[C@H](COCc1ccccc1)NC(=O)[C@H](Cc1ccccc1)NC(=O)[C@H](Cc1c[nH]cn1)NC(=O)OCc1ccccc1)C(N)=O` [Cbz-His-Phe-Ser(OBn)-Trp-DAla-NH2, Cbz-His-Phe-Ser(OBn)-Trp-D-Ala- NH2] (Cbz-HFS(Bn)W[dA]-NH2) was run?
A: 10 nM

Q: Which IC50 does the source give for `C[C@@H](NC(=O)[C@H](Cc1c[nH]c2ccccc12)NC(=O)[C@H](COCc1ccccc1)NC(=O)[C@H](Cc1ccc(OCc2ccccc2)cc1)NC(=O)[C@H](Cc1c[nH]cn1)NC(=O)OCc1ccccc1)C(N)=O` [Cbz-His-Tyr(OBn)-Ser(OBn)-Trp-DAla- NH2, Nα-[N-[N-[N-[N-[(Phenylmethoxy)carbonyl]-L-histidyl]-O-(phenylmethyl)-L-tyrosyl]-O-(phenylmethyl)-L-seryl]-Ltryptophyl]-D-alaninamide] (Cbz-HY(Bn)S(Bn)W[dA]-NH2) here?
A: 17 nM

Q: For `COC(=O)[C@H](Cc1c[nH]c2ccccc12)NC(=O)[C@H](COCc1ccccc1)NC(=O)[C@H](Cc1ccc(OCc2ccccc2)cc1)NC(=O)[C@H](Cc1c[nH]cn1)NC(=O)OCc1ccccc1` [Cbz-His-Tyr(OBn)-Ser(OBn)-Trp- OMe, N-[N-[N-[N-[(Phenylmethoxy)carbonyl]-L-histidyl]-O-(phenylmethyl)-L-tyrosyl]-O-(phenylmethyl)-L-seryl]-L-tryptophan, methyl ester] (Cbz-HY(Bn)S(Bn)W-OMe), which IC50 is on record?
A: 115 nM

Q: With `C[C@@H](NC(=O)[C@H](Cc1c[nH]c2ccccc12)NC(=O)[C@H](COCc1ccccc1)NC(=O)[C@@H](Cc1ccc(OCc2ccccc2)cc1)NC(=O)[C@H](Cc1c[nH]cn1)NC(=O)OCc1ccccc1)C(N)=O` [Cbz-His-DTyr(OBn)-Ser(OBn)-Trp-DAla-NH2, Cbz-His-D-Tyr(OBn)-Ser(OBn)-Trp-D-Ala- NH2] (Cbz-H[dY](Bn)S(Bn)W[dA]-NH2) as the molecule, how does the IC50 read?
A: 39 nM

Q: For `C[C@@H](NC(=O)[C@H](Cc1c[nH]c2ccccc12)NC(=O)[C@H](COCc1ccccc1)NC(=O)[C@H](Cc1ccc(OP(=O)(O)O)cc1)NC(=O)[C@H](Cc1c[nH]cn1)NC(=O)OCc1ccccc1)C(N)=O` [Cbz-His-Tyr(OPO3H2)-Ser(OBn)-Trp-DAla- NH2] (Cbz-H[pY]S(Bn)W[dA]-NH2), which IC50 is on record?
A: 9 nM

Reference: patent EP0725790B1, “SUBSTITUTED TETRA- AND PENTAPEPTIDE INHIBITORS OF PROTEIN:FARNESYL TRANSFERASE” (PARKE DAVIS & COMPANY, priority 1993, dated 1995)
